The values below come from patent publication US12077503B2, “Substituted cyclic amides and their use as herbicides” (FMC CORPORATION, priority 2015, dated 2024).

Holding throughout (assay type): in vivo
In assay [1] the test system is barnyardgrass (Echinochloa crus-galli). The experiment in a line: Test A preemergence. The conditions noted are these: Echinochloa crus-galli, pre-emergence, 240 h; for pest or weed control at 125 g/ha: 125 g ai/ha, preemergence, 0 to 100 scale where 0 is no effect and 100 is complete control, read-out: Barnyardgrass plant response rating; for pest or weed control at 500 g/ha: 500 g ai/ha, Preemergence, visual injury vs untreated controls after approximately 10 d, read-out: Barnyardgrass plant response rating (0 to 100 scale where 0 is no effect and 100 is complete control). The essentials:
(§1)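 Visual injury scores from 0, no effect, to 100, complete control, were assigned versus untreated controls roughly 10 d after treatment in the greenhouse. Test chemicals, formulated with surfactant in a non-phytotoxic solvent, were applied to planted seeds as a preemergence soil spray or postemergence to one- to two-leaf plants 2 to 10 cm tall, in loam–sand soil.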

For assay [2], the system named is Kochia (Kochia scoparia). Description: Test A preemergence. The note with it: Bassia scoparia, pre-emergence, 240 h; for pest or weed control at 125 g/ha: 125 g ai/ha, preemergence, 0 to 100 scale where 0 is no effect and 100 is complete control, read-out: Kochia plant response rating; for pest or weed control at 500 g/ha: 500 g ai/ha, Preemergence, visual injury vs untreated controls after approximately 10 d, read-out: Kochia plant response rating (0 to 100 scale where 0 is no effect and 100 is complete control). A digest of the protocol:
as §1

In assay [3] the test system is ryegrass, Italian (Italian ryegrass, Lolium multiflorum). The experiment in a line: Test A preemergence. The note with it: Lolium multiflorum, pre-emergence, 240 h; for pest or weed control at 125 g/ha: 125 g ai/ha, preemergence, 0 to 100 scale where 0 is no effect and 100 is complete control, read-out: Ryegrass, Italian plant response rating; for pest or weed control at 500 g/ha: 500 g ai/ha, Preemergence, visual injury vs untreated controls after approximately 10 d, read-out: Ryegrass, Italian plant response rating (0 to 100 scale where 0 is no effect and 100 is complete control). The essentials:
as §1

Assay [4] relates to ragweed (common ragweed, Ambrosia elatior). The experiment in a line: Test A preemergence. The note with it: Ambrosia artemisiifolia, pre-emergence, 240 h; for pest or weed control at 125 g/ha: 125 g ai/ha, preemergence, 0 to 100 scale where 0 is no effect and 100 is complete control, read-out: Ragweed plant response rating; for pest or weed control at 500 g/ha: 500 g ai/ha, Preemergence, visual injury vs untreated controls after approximately 10 d, read-out: Ragweed plant response rating (0 to 100 scale where 0 is no effect and 100 is complete control). The essentials: as §1

The test system of assay [5] is giant foxtail (Setaria faberii). Description: Test A preemergence. The conditions noted are these: Setaria faberi, pre-emergence, 240 h; for pest or weed control at 125 g/ha: 125 g ai/ha, preemergence, 0 to 100 scale where 0 is no effect and 100 is complete control, read-out: Foxtail, Giant plant response rating; for pest or weed control at 500 g/ha: 500 g ai/ha, Preemergence, visual injury vs untreated controls after approximately 10 d, read-out: Foxtail, Giant plant response rating (0 to 100 scale where 0 is no effect and 100 is complete control). A digest of the protocol:
as §1

Assay [6] relates to pigweed (Amaranthus retroflexus). The experiment in a line: Test A preemergence. The conditions noted are these: Amaranthus retroflexus, pre-emergence, 240 h; for pest or weed control at 125 g/ha: 125 g ai/ha, preemergence, 0 to 100 scale where 0 is no effect and 100 is complete control, read-out: Pigweed plant response rating; for pest or weed control at 500 g/ha: 500 g ai/ha, Preemergence, visual injury vs untreated controls after approximately 10 d, read-out: Pigweed plant response rating (0 to 100 scale where 0 is no effect and 100 is complete control).

Assay [7] deals with barnyardgrass (Echinochloa crus-galli). Description: Test A postemergence. The note with it: Echinochloa crus-galli, post-emergence, 240 h, 125 g ai/ha, postemergence, visual injury rating after approximately 10 d; read-out: Barnyardgrass plant response rating (0 to 100 scale, 0 no effect, 100 complete control). The essentials:
as §1

For assay [8], the system named is blackgrass (Alopecurus myosuroides). Description: Test A postemergence. The conditions noted are these: Alopecurus myosuroides, post-emergence, 240 h, 125 g ai/ha, postemergence, visual injury rating after approximately 10 d; read-out: Blackgrass plant response rating (0 to 100 scale, 0 no effect, 100 complete control). A digest of the protocol: as §1
The test system of assay [9] is Kochia (Kochia scoparia). The experiment in a line: Test A postemergence. The conditions noted are these: Bassia scoparia, post-emergence, 240 h, 125 g ai/ha, postemergence, visual injury rating after approximately 10 d; read-out: Kochia plant response rating (0 to 100 scale, 0 no effect, 100 complete control). A digest of the protocol:
as §1

Assay [10] has as its system Galium (catchweed bedstraw, Galium aparine). The experiment in a line: Test A postemergence. The conditions noted are these: Galium, post-emergence, 240 h, 125 g ai/ha, postemergence, visual injury rating after approximately 10 d; read-out: Galium plant response rating (0 to 100 scale, 0 no effect, 100 complete control). A digest of the protocol:
as §1

The next assay deals with corn (Zea mays). Description: Test A postemergence. The conditions noted are these: Zea mays, post-emergence, 240 h, 125 g ai/ha, postemergence, visual injury rating after approximately 10 d; read-out: Corn plant response rating (0 to 100 scale, 0 no effect, 100 complete control). A digest of the protocol: as §1
The subject of assay [11] is ryegrass, Italian (Italian ryegrass, Lolium multiflorum). The experiment in a line: Test A postemergence. The conditions noted are these: Lolium multiflorum, post-emergence, 240 h, 125 g ai/ha, postemergence, visual injury rating after approximately 10 d; read-out: Ryegrass, Italian plant response rating (0 to 100 scale, 0 no effect, 100 complete control). The essentials: as §1

Assay [12] has as its system wheat (Triticum aestivum). The experiment in a line: Test A postemergence. The conditions noted are these: Triticum aestivum, post-emergence, 240 h, 125 g ai/ha, postemergence, visual injury rating after approximately 10 d; read-out: Wheat plant response rating (0 to 100 scale, 0 no effect, 100 complete control). A digest of the protocol: as §1
Assay [13] concerns ragweed (common ragweed, Ambrosia elatior). The experiment in a line: Test A postemergence. The conditions noted are these: Ambrosia artemisiifolia, post-emergence, 240 h, 125 g ai/ha, postemergence, visual injury rating after approximately 10 d; read-out: Ragweed plant response rating (0 to 100 scale, 0 no effect, 100 complete control). A digest of the protocol:
as §1

In assay [14] the test system is giant foxtail (Setaria faberii). The experiment in a line: Test A postemergence. The note with it: Setaria faberi, post-emergence, 240 h, 125 g ai/ha, postemergence, visual injury rating after approximately 10 d; read-out: Foxtail, Giant plant response rating (0 to 100 scale, 0 no effect, 100 complete control). The essentials:
as §1

The test system of assay [15] is pigweed (Amaranthus retroflexus). Description: Test A postemergence. The conditions noted are these: Amaranthus retroflexus, post-emergence, 240 h, 125 g ai/ha, postemergence, visual injury rating after approximately 10 d; read-out: Pigweed plant response rating (0 to 100 scale, 0 no effect, 100 complete control). A digest of the protocol:
as §1

As to `CC(C)(C)c1ccc([C@H]2CNC(=O)[C@@H]2C(=O)Nc2cccc(F)c2F)cc1` [Compound 847], the pest or weed control at 125 g/ha (in [1]; with Kochia (Kochia scoparia) [2]; in assay [3]; in assay [4]; in assay [5]; in assay [6]) was 0% throughout. The pest or weed control at 125 g/ha (in assay [7]; in assay [8]; with Kochia (Kochia scoparia) [9]; in [10]; in assay [11]; in assay [13]) was 0% throughout. Also, the pest or weed control at 125 g/ha in assay [14] and in [15] was 0% throughout. Besides, the pest or weed control at 500 g/ha was 60% in assay [1]; 0% in the assay on Kochia (Kochia scoparia) [2]; 0% in [3]; 0% in assay [4]; 50% in [5]; 0% in [6]. The plant injury at 125 g/ha (in the assay with corn (Zea mays); in assay [12]) was 0% throughout.
On to `COc1cc([C@H]2CN(C)C(=O)[C@@H]2C(=O)Nc2ccccc2SC)cc(C(F)(F)F)c1` [Compound 857], for which the pest or weed control at 125 g/ha in assay [1] was 90%; with Kochia (Kochia scoparia) [2], 0%; in assay [3], 40%; in assay [4] it was 0%; in assay [5], 80%; in assay [6], 60%. Besides, the pest or weed control at 125 g/ha in [7] was found to be 70%; in assay [8], 30%; in the assay on Kochia (Kochia scoparia) [9], 20%; in [10] it was 20%; in [11] it was 20%; in assay [13], 0%. The pest or weed control at 125 g/ha in [14] worked out at 70%; in assay [15] it was 30%. Besides, the pest or weed control at 500 g/ha came out at 90% in assay [1]; 30% in the assay with Kochia (Kochia scoparia) [2]; 60% in assay [3]; 30% in assay [4]; 90% in [5]; 70% in assay [6]. For the same compound, the plant injury at 125 g/ha in the assay with corn (Zea mays) is 40%; in assay [12], 30%.
`COc1cc(C(F)(F)F)ccc1[C@H]1CN(C)C(=O)[C@@H]1C(=O)Nc1ccccc1F` [Compound 858]: the pest or weed control at 125 g/ha in [1] was 90%; in the assay with Kochia (Kochia scoparia) [2], 60%; in assay [3], 30%; in assay [4], 0%; in [5], 90%; in assay [6], 20%. The pest or weed control at 125 g/ha is 80% in assay [7]; 0% in assay [8]; 20% in the assay with Kochia (Kochia scoparia) [9]; 30% in [10]; 20% in assay [11]; 0% in [13]. For the same compound, the pest or weed control at 125 g/ha in assay [14] is 80%; in assay [15] it was 20%. The pest or weed control at 500 g/ha was 90% in assay [1]; 70% with Kochia (Kochia scoparia) [2]; 70% in assay [3]; 30% in [4]; 90% in assay [5]; 50% in assay [6]. Besides, the plant injury at 125 g/ha (in the assay with corn (Zea mays); in [12]) was 20% throughout.
With `CSc1ccccc1NC(=O)[C@H]1C(=O)N(C)C[C@@H]1c1cccc(OC(F)(F)C(F)F)c1` [Compound 862], the pest or weed control at 125 g/ha in [1] is 90%; in the assay with Kochia (Kochia scoparia) [2] it was 70%; in assay [3], 0%; in [4] it was 90%; in assay [5], 90%; in assay [6] it was 80%. Further, the pest or weed control at 125 g/ha in [7] is 30%; in assay [8], 0%; with Kochia (Kochia scoparia) [9], 40%; in [10] it was 60%; in assay [11], 20%; in assay [13], 0%. For the same compound, the pest or weed control at 125 g/ha in assay [14] and in [15] was 60% in each case. The pest or weed control at 500 g/ha in [1] stood at 100%; in the assay with Kochia (Kochia scoparia) [2] it was 70%; in [3] it was 20%; in assay [4], 100%; in assay [5], 90%; in assay [6], 90%. Further, the plant injury at 125 g/ha with corn (Zea mays) came to 20%; in assay [12], 0%.
